{
  "source": "patent US9782428B2",
  "about": "“Method for generation of broadly neutralizing anti-pathogen antibodies” (Northeastern University, priority 2013, dated 2017)",
  "key": {"[1]": {"test_system": "Gs coupled protein receptor", "conditions": "dopamine at day 44 and day 62 plus inspiration of hyperoxic gas mixture; day 47 and day 65; vs untreated mice", "experimental": "12 male wild type C57 B/6 mice 10-12 weeks of age are immunized as described in Example 1. At day 21, the mice are given an immune boost of 1 μg NP-OVA with adjuvant via intraperitoneal injection. At day 42, the mice are given an immune challenge of 1 μg NP-OVA without adjuvant via tail vein injection. […] Samples at 5 days and 23 days post immune challenge (i.e., day 47 and day 65 of the assay) will be subjected to ELISA measurement for NIP-25."}, "germinal center B cells": {"test_system": "germinal center B cells", "experiment": "Flow cytometric analysis of germinal center B cells from immunized mice treated with CGS-21680 (Experiments 1 and 3)", "assay_type": "in vivo", "procedure": "All mice were sacrificed on day 6.\nAll mice were sacrificed on day 21.\nFlow cytometric analysis of germinal center B cells from Experiment 1 (gated as lymphocytes, B220+, Gl-7 positive, CD38 negative; FIGS. 10E and 10F) and Experiment 3 (B220 positive, Gl-7 hi, IgD-negative; FIG. 10D) was performed. The flow cytometric analysis was performed according to the protocol discussed in Example."}, "resting B cells": {"test_system": "resting B cells", "experiment": "In vitro class switch recombination IgM to IgG1 in resting B cells stimulated with anti-CD40 and IL-4", "assay_type": "cell-based, mice", "conditions": "four days in culture; for class switching of IgM to IgG1: gated on B220+, vs untreated B cells", "procedure": "Female C57 B/6 mice were sacrificed and spleens harvested and generated into single cell suspensions. Lymphocytes were isolated using Ficoll separation (GE Healthcare) and interface layer was collected after centrifugation (1000×g for 10 minutes). Cells were FC Blocked as described above and then stained with CD43 FITC (clone S7) and then washed and stained with anti-FITC microbeads (Miltenyi) at 4° C. for 30 minutes. Cells were then depleted using magnetic separation autoMACS deplete(s) program (Miltenyi). The depleted fraction was used for experiments as these consist of resting B cells.\nB cells plated in a 24 well plate at 200,000 cells pre well with IMDM media, as described in Example 3 (1 ml media/well). B cells were then stimulated using anti-CD40 antibody (2.5 μg/ml clone IC-10 eBiosciences) and recombinant mouse IL-4 (10 ng/ml, R&D). […] All stimulating reagents were added at the seeding of the culture on day 0 and no other drugs were added thereafter.\nAfter four days in culture, amount of class switch to IgG1 was determined by flow cytometric analysis by staining with anti-mouse IgM, IgG1, and B220. Plots are all gated on B220+ cells (FIG. 8A-8F)"}, "[2]": {"conditions": "Experiment 1, 5 subcutaneous injections 1 mg/kg days 4-6, sacrificed day 6"}},
  "note": "“Also recorded” adds a separate entry of the source.",
  "data": [
    {"smiles": "NCCc1ccc(O)c(O)c1", "note": "[dopamine]", "values": [
      {"measurement": "levels of NIP-25", "setting": "[1]", "value": "higher levels"}
    ]},
    {"smiles": "CCNC(=O)[C@H]1O[C@@H](n2cnc3c(N)nc(NCCc4ccc(CCC(=O)O)cc4)nc32)[C@H](O)[C@@H]1O", "note": "[CGS21680]", "values": [
      {"measurement": "amount of class switched NP-PE binding cells", "setting": "germinal center B cells; [2]", "value": "higher amount"},
      {"measurement": "proportion of class switched IgG1 germinal center B cells", "setting": "germinal center B cells; [2]", "value": "enhanced class switching"},
      {"measurement": "proportion of class switched IgG1 germinal center B cells", "setting": "germinal center B cells; Experiment 1, 5 subcutaneous injections 1 mg/kg days 4-6, sacrificed day 6, listed as CGS-21680", "value": "increased proportion"},
      {"measurement": "frequency of germinal center B cells", "setting": "germinal center B cells; Experiment 3, 1 mg/kg subcutaneous twice daily day 8-20, sacrificed day 21, compared to control", "value": "decrease"},
      {"measurement": "class switching of IgM to IgG1", "setting": "resting B cells; 10 μM", "value": "has class switching"}
    ]},
    {"smiles": "CCNC(=O)[C@H]1O[C@@H](n2cnc3c(N)ncnc32)[C@H](O)[C@@H]1O", "note": "[NECA, N-ethylcarboxyamidoadenosine]", "values": [
      {"measurement": "class switching of IgM to IgG1, dependence on concentration", "setting": "resting B cells; 100 nM, 1 μM, 10 μM", "value": "class switching increases as the concentration of NECA increases"},
      {"measurement": "class switching of IgM to IgG1", "setting": "resting B cells; 100 nM", "value": "increases the class switching; also recorded: has class switching"},
      {"measurement": "class switching of IgM to IgG1", "setting": "resting B cells; 1 μM", "value": "has class switching"},
      {"measurement": "class switching of IgM to IgG1", "setting": "resting B cells; 10 μM", "value": "has class switching"}
    ]}
  ]
}
